# Source: ChEMBL document CHEMBL3045911, “Control of Contarinia nasturtii Keiffer (Diptera: Cecidomyiidea) by foliar sprays of acetamiprid on cauliflower transplants” (2007)
# Activity calls are given as the source filed them. No cut-off for these calls is given here.
# Columns and labels:
# [1] = system: Contarinia nasturtii; assay: Pesticidal activity against Contarinia nasturtii grown on three-leaf stage cauliflower seedling assessed as decrease in larval feeding time at 34 g a.i./ha applied as foliar spray 8 days post-ovipositioning measured as emergence of adult insect in the soil 7 days after cutting of seedling; format: functional, organism-based
# [2] = system: Contarinia nasturtii; assay: Pesticidal activity against Contarinia nasturtii grown on […] assessed as larval pupation applied as foliar spray 8 days post-ovipositioning relative to control; format: functional
# [3] = system: Contarinia nasturtii; assay: Pesticidal activity against Contarinia nasturtii grown on three-leafstage cauliflower seedling assessed as insect egg hatching at 34 g a.i./ha applied as foliar spray prior to oviposition measured after 7 days (reference value: 100%); format: functional
# [4] = system: Contarinia nasturtii; assay: Pesticidal activity against Contarinia nasturtii grown on three-leaf stage cauliflower seedling assessed as insect egg death at 34 g a.i./ha applied as foliar spray prior to oviposition measured after 7 days; format: functional, organism-based
# [5] = system: Contarinia nasturtii; assay: Pesticidal activity against Contarinia nasturtii grown on three-leaf stage cauliflower seedling at 34 g a.i./ha applied as foliar spray 8 days post-ovipositioning measured after 10 days; format: functional
# [6] = system: Contarinia nasturtii; assay: Pesticidal activity against Contarinia nasturtii grown on three-leaf stage cauliflower seedling at 34 g a.i./ha applied as foliar spray immediately post-ovipositioning measured after 7 days; format: functional
# [7] = system: Contarinia nasturtii; assay: Pesticidal activity against Contarinia nasturtii grown on three-leaf stage cauliflower seedling assessed as mortality of insect adult at 34 g a.i./ha applied as foliar spray prior to oviposition measured after 24 hr relative to control; format: functional
# [8] = system: Contarinia nasturtii; assay: Pesticidal activity against Contarinia nasturtii grown on three-leaf stage cauliflower seedling assessed as decrease in insect eggs laid per plant at 34 g a.i./ha applied as foliar spray 4 days post-ovipositioning measured after 7 days relative to control; format: functional, organism-based
# [9] = system: Contarinia nasturtii; assay: Pesticidal activity against Contarinia nasturtii grown on three-leaf stage cauliflower seedling assessed as insect egg hatching at 34 g a.i./ha applied as foliar spray 8 days post-ovipositioning measured after 10 days (reference value: 100%); format: functional
# [10] = system: Contarinia nasturtii; assay: Pesticidal activity against Contarinia nasturtii grown on three-leaf stage cauliflower seedling assessed as decrease in insect eggs laid per plant at 34 g a.i./ha applied as foliar spray immediately post-ovipositioning measured after 7 days relative to control; format: functional, organism-based
# [11] = system: Contarinia nasturtii; assay: Pesticidal activity against Contarinia nasturtii grown on three-leaf stage cauliflower seedling assessed as decrease in damage to seedling tips at 34 g a.i./ha applied as foliar spray 8 days post-ovipositioning measured after 10 days; format: functional, organism-based
# [12] = system: Contarinia nasturtii; assay: Pesticidal activity against Contarinia nasturtii grown on three-leaf stage cauliflower seedling assessed as decrease in mean number of larvae at 34 g a.i./ha applied as foliar spray 8 days post-ovipositioning measured on the above ground part of seedling after 10 days; format: functional, organism-based
# [13] = system: Contarinia nasturtii; assay: Pesticidal activity against Contarinia nasturtii grown on three-leaf stage cauliflower seedling at 34 g a.i./ha applied as foliar spray prior to oviposition measured after 7 days; format: functional
# [14] = system: Contarinia nasturtii; assay: Pesticidal activity against Contarinia nasturtii grown on three-leaf stage cauliflower seedling assessed as insect egg death at 34 g a.i./ha applied as foliar spray immediately post-ovipositioning measured after 7 days relative to control; format: functional
# [15] = system: Contarinia nasturtii; assay: Pesticidal activity against Contarinia nasturtii grown on three-leaf stage cauliflower seedling assessed as insect egg hatching at 34 g a.i./ha applied as foliar spray 4 days post-ovipositioning measured after 7 days (reference value: 99.73 +/- 0.27%); format: functional
# [16] = system: Contarinia nasturtii; assay: Pesticidal activity against Contarinia nasturtii grown on […] assessed as larvae survival applied as foliar spray 8 days post-ovipositioning relative to control; format: functional
# [17] = system: Contarinia nasturtii; assay: Pesticidal activity against Contarinia nasturtii grown on […] applied as foliar spray immediately post-ovipositioning relative to control; format: functional
# [18] = system: Contarinia nasturtii; assay: Pesticidal activity against Contarinia nasturtii grown on three-leaf stage cauliflower seedling assessed as mortality of insect adult at 34 g a.i./ha applied as foliar spray prior to oviposition measured after 48 hr relative to control; format: functional
# [19] = system: Contarinia nasturtii; assay: Pesticidal activity against Contarinia nasturtii grown on three-leaf stage cauliflower seedling at 34 g a.i./ha applied as foliar spray 4 days post-ovipositioning measured after 7 days; format: functional
# [20] = system: Contarinia nasturtii; assay: Pesticidal activity against Contarinia nasturtii grown on three-leaf stage cauliflower seedling assessed as decrease in insect eggs laid per plant at 34 g a.i./ha applied as foliar spray prior to oviposition measured after 7 days relative to control; format: functional, organism-based
# [21] = system: Contarinia nasturtii; assay: Pesticidal activity against Contarinia nasturtii grown on three-leaf stage cauliflower seedling assessed as insect egg hatching at 34 g a.i./ha applied as foliar spray immediately post-ovipositioning measured after 7 days (reference value: 100%); format: functional
smiles,measurement,setting,value
C/C(=N\C#N)N(C)Cc1ccc(Cl)nc1 [ACETAMIPRID],Activity,[1],Active
same,Activity,[2],20%
same,Activity,[3],0.48%
same,Activity,[4],Active
same,Activity,[5],69.89%
same,Activity,[6],100%
same,mortality at 34 g/ha,[7],84.4%
same,Activity,[8],inactive
same,Activity,[9],100%
same,Activity,[10],inactive
same,Activity,[11],inactive
same,Activity,[12],Active
same,Activity,[13],99.52%
same,Activity,[14],100%
same,Activity,[15],100%
same,Activity,[16],30%
same,Activity,[17],99.9%
same,mortality at 34 g/ha,[18],100%
same,Activity,[19],99.83%
same,Activity,[20],Active
same,Activity,[21],0%
